Test results taken from patent publication EP1136552A1, “ATP binding cassette transporter 1 (ABC1) gene polymorphisms and uses thereof for the diagnosis and treatment of lipid disorders, cardiovascular diseases and inflammatory diseases” (Bayer Aktiengesellschaft, priority 2000, dated 2001).

Assays:
mononuclear phagocytes [1] = test: ApoA-I mediated cholesterol efflux from cholesterol-loaded monocytes (14C-cholesterol); format: cell-based, Human; details: ApoA-I 10 µg/ml + 24 h pretreatment with forskolin 10 µM, percent of basal efflux, men and women
Experimental: Cellular Lipid Efflux. Human peripheral blood cells were isolated from lithium-heparin treated blood samples of adult, healthy volunteers. The peripheral blood mononuclear cell fraction was separated by density gradient centrifugation over Ficoll-Histopaque […] (Sigma). Cells positive for CD2, CD7, CD16, CD19 and CD56 were removed by appropriate magnetic beads (Dynal) leaving > 80% pure monocytes. Isolated monocytes were then cultured at a density of 1.5x10^5 cells/mL in polystyrene culture dishes (100x15mm Petri dish, Falcon) in a serum-free macrophage medium (Macrophage-SFM, Gibco Life Technologies) supplemented with 50ng/mL human recombinant M-CSF (R&D Systems). After an overnight incubation cells were cholesterol loaded for 24 hrs by addition of enzymatically modified LDL (E-LDL; 40 µg/ml), which was prepared as previously described (31). […] Lipids were extracted by liquid extraction according to the method of Bligh and Dyer (13). ^3H and ^14C radioactivities of the total lipid extracts were measured by liquid scintillation counting in order to distinguish between ^3H labeled phospholipids and ^14C-cholesterol. Lipid efflux was calculated as percentage of disintegrations per minute (dpm) in medium divided by the sum of dpm recovered from medium and cells. […]

mononuclear phagocytes [2] = test: ApoA-I mediated efflux of choline containing phospholipids from monocytes (3H-choline); format: cell-based, Human; details: ApoA-I 10 µg/ml + 24 h pretreatment with forskolin 10 µM, percent of basal efflux, men and women
Experimental: Cellular Lipid Efflux. Human peripheral blood cells were isolated from lithium-heparin treated blood samples of adult, healthy volunteers. The peripheral blood mononuclear cell fraction was separated by density gradient centrifugation over Ficoll-Histopaque […] (Sigma). Cells positive for CD2, CD7, CD16, CD19 and CD56 were removed by appropriate magnetic beads (Dynal) leaving > 80% pure monocytes. Isolated monocytes were then cultured at a density of 1.5x10^5 cells/mL in polystyrene culture dishes (100x15mm Petri dish, Falcon) in a serum-free macrophage medium (Macrophage-SFM, Gibco Life Technologies) supplemented with 50ng/mL human recombinant M-CSF (R&D Systems). After an overnight incubation cells were cholesterol loaded for 24 hrs by addition of enzymatically modified LDL (E-LDL; 40 µg/ml), which was prepared as previously described (31). The incubation medium was further supplemented with ^14C-cholesterol (1.5 µCi/ml) and ^3H-choline (10µCi/ml) in order to label cellular cholesterol and choline containing phospholipids. In a subset of experiments cells were stimulated with 10 µM forskolin during the labeling period. After 24 hrs monocytes were washed and incubated for 17 hrs with or without 10 µg/ml ApoA-I (Sigma) in macrophage medium containing 0.1 % bovine serum albumin and 50ng/mL M-CSF. After incubation the media were removed and centrifuged at 800 x g to precipitate any detached cells. Cells were lysed in 0.2% SDS. Lipids were extracted by liquid extraction according to the method of Bligh and Dyer (13). ^3H and ^14C radioactivities of the total lipid extracts were measured by liquid scintillation counting in order to distinguish between ^3H labeled phospholipids and ^14C-cholesterol. Lipid efflux was calculated as percentage of disintegrations per minute (dpm) in medium divided by the sum of dpm recovered from medium and cells. The ApoA-I specific efflux is expressed a percent of basal unstimulated efflux observed in serum-free macrophage medium without ApoA-I. Statistical Analysis. […]

human fibroblasts = test: G2-phase cell cycle arrest in fibroblasts; format: cell-based
neutral sphingomyelinase = test: Ceramide formation from sphingomyelin; format: cell-based
IL-1β = test: Inhibition of pro-IL-1β processing and IL-1β release; format: cell-based

| ceramide formation from sphingomyelin mediated by neutral sphingomyelinase (neutral sphingomyelinase) | Caspase I mediated processing of pro-IL-1β and release of mature IL-1β (IL-1β) | Compound | Cholesterol efflux (mononuclear phagocytes [1]; 596A/A) [%] | Cholesterol efflux (mononuclear phagocytes [1]; wt/wt 596G/G, 2589A/A) [%] | Phospholipid efflux (mononuclear phagocytes [2]; 596A/A) [%] | Phospholipid efflux (mononuclear phagocytes [2]; 2589G/G) [%] | Phospholipid efflux (mononuclear phagocytes [2]; wt/wt 596G/G, 2589A/A) [%] | G2-phase cell cycle arrest (human fibroblasts) |
| --- | --- | --- | --- | --- | --- | --- | --- | --- |
| – | – | C=C[C@@]1(C)CC(=O)[C@]2(O)[C@@]3(C)[C@@H](O)CCC(C)(C)[C@@H]3[C@H](O)[C@H](OC(C)=O)[C@@]2(C)O1 [forskolin] | 126.7 ± 37.4 | 121.8 ± 16.4 | 136.7 ± 12.8 | 124.5 ± 25.8 | 135.4 ± 20.2 | – |
| inhibits | inhibits | COc1ccc(Cl)cc1C(=O)NCCc1ccc(S(=O)(=O)NC(=O)NC2CCCCC2)cc1 [glyburide] | – | – | – | – | – | releases human fibroblasts from G2-phase cell cycle arrest |
